Reference: patent publication US5658913A, “Chemopreventive compounds and a preparation method and use thereof” (Kim; Nak Doo, priority 1993, dated 1997)

What was measured:
[1] = system: enzymes involved in phase II reactions; details: literature; cited from earlier work
aniline hydroxylase = experiment: Aniline hydroxylase activity in combination with INAH (Experimental Example 2(2)); format: in vivo, Sprague-Dawley rat; details: for Aniline hydroxylase, Amount: INAH 200 mg/kg i.p., alone or plus compound 200 mg/kg; for Aniline hydroxylase, Activity: INAH alone = 100%
Description: Thus, 1 mg of microsomes and 5 mM aniline were added to 0.6 ml of 0.1M potassium phosphate buffer(pH 6.8) to make the total volume of 0.9 ml. 1 mM NADPH was added to make the total volume of 1.0 ml and the resulting mixture was reacted at 37° C. After 10 minutes, 20% trichloroacetic acid was added to stop the reaction and the reaction mixture was centrifuged. To 1 ml of supernatant were added 0.1 ml of 5% phenol and 0.1 ml of 2.5N sodium carbonate, dissolved in 0.1N NaOH. The mixture was allowed to stand for 30 minutes to develop a color and the absorbance at 630 nm was measured at once. The enzyme activity was expressed in terms of mole concentration of 4-aminophenol, the product of reaction for 1 minute.
(§1) In order to examine the effect of the compound of the present invention on the activity of the enzymes involved in phase I reaction when administered in combination with INAH, the experiments were carried out as follows:
(§2) Eight groups of Sprague-Dawley rat weighing 190±30 g were intraperitoneally administered with INAH(Group 1), or INAH plus the compounds of Examples 2 to 8(Groups 2 to 8), each in a dose of 200 mg/kg. The inventive compounds and INAH were diluted with corn oil and PBS respectively, and the test compounds were administered just after administering INAH.
(§3) The changes in the activity of p-nitrophenol hydroxylase and aniline hydroxylase were measured by following the same procedure as in Experimental Example 1(2-1) and (2-2). The activity of enzymes was determined by considering the activity of enzyme when INAH alone was administered as 100%.

[2] = system: p-nitrophenol hydroxylase; experiment: p-Nitrophenol hydroxylase activity in combination with INAH (Experimental Example 2(2)); format: in vivo, Sprague-Dawley rat; details: for p-Nitrophenol hydrolase, Amount: INAH 200 mg/kg i.p., alone or plus compound 200 mg/kg
[3] = system: Glutathion S-transferase (GST); experiment: GST activity, administered alone or in combination with INAH (Experimental Example 4(2)); format: in vivo, Sprague-Dawley rat; details: for induction of expression of glutathione S-transferase when INAH is administered: in words; for increase of expression of glutathione S-transferase: Table 3
Description: Thus, to 25 μg(0.1 ml) of cytosol protein were added 0.1 mM […] and 1.0 mM glutathione as substrates, and 0.1M potassium phosphate were added to make the total volume of 1.0 ml(pH 6.4). The resulting mixture was allowed to stand at room temperature for 2 minutes and measured for its absorbance at 340 nm at intervals of 15 seconds during the period of 1 minute. As a reference, a cytosol protein denatured by heating was used. The activity of GST was calculated by measuring the change of absorbance for the period of 1 minute and employing the extinction coefficient of 9.6 mM^-1 cm^-1.
In order to examine the effect of the compound of the present invention on the activity of the enzymes involved in phase II reaction when administered alone or in combination with INAH, the experiments were carried out as follows:
Sixteen groups of Sprague-Dawley rat weighing 190±30 g were intraperitoneally administered with corn oil(Group 1), compounds of Examples 2 to 8(Groups 2 to 8), INAH(Group 9), or INAH plus the compounds of Examples 2 to 8(Groups 10 to 16), each in a dose of 200 mg/kg. The inventive compounds and INAH were diluted with corn oil, and the test compounds were administered just after administering INAH.
The change in the activity of GST was measured by following the same procedure as in Experimental Example 3(2). The activity of enzyme was determined by considering the activity of enzyme when corn oil or INAH alone was administered as 100%.

[4] = system: p-nitrophenol hydroxylase; experiment: p-Nitrophenol hydroxylase activity in combination with INAH (Experimental Example 2(2)); format: in vivo, Sprague-Dawley rat; details: INAH alone = 100%; INAH plus compound, each 200 mg/kg i.p.
Description: Thus, 1 mg of microsomes and 1mM p-nitrophenol were added to 0.6 ml of 0.1M potassium phosphate buffer(pH 6.8) to make the total volume of 0.9 ml. The resulting mixture was preliminarily reacted in a 37° C. incubator for 2 minutes and started to react while adding 1 mM NADPH(0.1 ml). After 3 minutes, 0.5 ml of 0.6N perchloric acid was added to develop a color and the absorbance at 546 nm was measured at once. The enzyme activity was expressed in terms of mole concentration of 4-nitrocatechol, the product of reaction for 1 minute.
as §1, §2, §3

[5] = INAH plus compound, each 200 mg/kg i.p.
[6] = INAH alone or INAH plus compound, each 200 mg/kg i.p.
[7] = INAH plus compound, each 200 mg/kg i.p., INAH alone = 100%
[8] = compound alone, 200 mg/kg i.p., corn oil = 100%
[9] = INAH plus compound, each 200 mg/kg i.p., in words

| Compound | induction of enzymes involved in phase II reactions [1] | Aniline hydroxylase, Amount (aniline hydroxylase) | Aniline hydroxylase, Activity (aniline hydroxylase; [5]) | p-Nitrophenol hydrolase, Amount [2] | Glutathion S-transferase, Amount [3, 6] | Glutathion S-transferase, Activity [3, 7] | Glutathion S-transferase, Amount ([3]; compound alone, 200 mg/kg i.p.) | Glutathion S-transferase, Activity [3, 8] | p-Nitrophenol hydrolase, Activity [4] | induction of expression of glutathione S-transferase when INAH is administered ([3]; INAH plus compound) | increase of expression of glutathione S-transferase ([3]; compound alone, 200 mg/kg i.p.) | inhibition of expression of aniline hydroxylase induced by INAH (aniline hydroxylase; [9]) | inhibition of expression of p-nitrophenol hydroxylase induced by INAH [2, 9] |
| --- | --- | --- | --- | --- | --- | --- | --- | --- | --- | --- | --- | --- | --- |
| 2(3)-tert-butyl-4-hydroxyanisole [butylhydroxyanisole] | shows an anti-cancer activity by inducing enzymes involved in phase II reactions |  |  |  |  |  |  |  |  |  |  |  |  |
| c1ccc(CSc2cnccn2)cc1 [Example 2, 2-(benzylthio)pyrazine] |  | 1.070 nmol/min/mg protein | 74% | 4.52 nmol/min/mg protein | 2.675 nmol/min/mg protein | 133% | 2.533 nmol/min/mg protein | 147% | 78% |  |  |  |  |
| CC(C)=CCSc1cnccn1 [Example 3, 2-(3-methyl-2-butenylthio)pyrazine] |  | 1.108 nmol/min/mg protein | 76% | 4.23 nmol/min/mg protein | 3.071 nmol/min/mg protein | 153% | 2.708 nmol/min/mg protein | 157% | 73% | strongly induce expression of enzyme |  |  |  |
| C(=Cc1ccccc1)CSc1cnccn1 [Example 4, 2-(cinnamylthio)pyrazine] |  | 0.972 nmol/min/mg protein | 67% | 3.69 nmol/min/mg protein | 2.683 nmol/min/mg protein | 134% | 2.892 nmol/min/mg protein | 168% | 64% |  |  |  |  |
| c1coc(CSc2cnccn2)c1 [Example 5, 2-(furfurylthio)pyrazine] |  | 0.972 nmol/min/mg protein | 67% | 3.53 nmol/min/mg protein | 3.029 nmol/min/mg protein | 151% | 2.996 nmol/min/mg protein | 174% | 61% | strongly induce expression of enzyme | ≥ 70% |  |  |
| C=C(C)CCSc1cnccn1 [Example 6, 2-(3-methyl-3-butenylthio)pyrazine] |  | 0.879 nmol/min/mg protein | 60% | 3.25 nmol/min/mg protein | 2.375 nmol/min/mg protein | 118% | 2.558 nmol/min/mg protein | 148% | 56% |  |  |  |  |
| CC=CCSc1cnccn1 [Example 7, 2-(2-butenylthio)pyrazine] |  | 0.712 nmol/min/mg protein | 49% | 2.33 nmol/min/mg protein | 2.263 nmol/min/mg protein | 113% | 3.046 nmol/min/mg protein | 177% | 40% |  | ≥ 70% | superior inhibitory action | superior inhibitory action |
| NNC(=O)c1ccncc1 [INAH, isoniazid, reference compound] |  | 1.453 nmol/min/mg protein | 100% | 5.80 nmol/min/mg protein | 2.008 nmol/min/mg protein | 100% |  |  | 100% |  |  |  |  |
| Cc1cc(C(C)(C)C)c(O)c(C(C)(C)C)c1 [butylhydroxytoluene, 3,5-ditert-butyl-4-hydroxytoluene] | shows a anti-cancer activity by inducing enzymes involved in phase II reactions |  |  |  |  |  |  |  |  |  |  |  |  |
